According to paper PMC2763540 (Chemistry & biology, 2009):
Several values for one entry are separate records, joined by “and”; a condition that tells them apart may be missing. Equal values may be shown once. Entries after “also recorded” stand apart in the source; their conditions may differ. Read-outs that look alike come from different tables or passages of the source.

Columns and labels:
[1] = tested on: hoiamide A-induced elevation of neuronal [Na+]i in neocortical neurons; assay type: cell-based, mouse (Swiss-Webster)
[2] = tested on: neurotoxin site 2 on VGSCs; assay type: binding, mouse (Swiss-Webster)
[3] = tested on: voltage-gated sodium channels; assay type: cell-based, mouse (Swiss-Webster)
[4] = tested on: mouse neocortical neurons
[5] = tested on: neurotoxin site 2 on VGSCs; assay type: cell-based, mouse (Swiss-Webster)
[6] = tested on: neurotoxin site 2 on VGSCs; details: cited from earlier work
[7] = tested on: voltage-gated sodium channels; details: cited from earlier work
[8] = tested on: neurotoxin site 5 on VGSCs; details: cited from earlier work

## NC1=N[C@H](O)[C@H]2[C@H]3O[C@]4(O)O[C@@H]([C@@H](O)[C@@]2(N1)[C@@H]4O)[C@]3(O)CO [TTX, tetrodotoxin]
[1]
  effect on hoiamide A-induced elevation of neuronal [Na+]i: eliminated the hoiamide A-induced elevation of neuronal [Na^+]i; also recorded: inhibition of hoiamide A-induced elevation of neuronal [Na^+]i

## COc1ccc(C(=O)O[C@H]2CC[C@@]3(C)[C@@H]4CC[C@H]5[C@]6(O)C[C@H](O)[C@@]7(O)[C@@H](CN8C[C@@H](C)CC[C@H]8[C@@]7(C)O)[C@]6(O)C[C@@]53O[C@]24O)cc1OC [veratridine]
[2]
  inhibition of [3H]BTX specific binding: much less potent than hoiamide A; also recorded: inhibit the specific binding of [^3H]BTX to VGSCs
[2]; read-out: IC50, inhibition of [3H]BTX specific binding
  IC50: 33000 nM

## CCC[C@@H](C)[C@H](O)[C@H](C)[C@H]1OC(=O)[C@H]([C@@H](C)O)NC(=O)[C@H](C(C)C)OC(=O)[C@H](C)[C@H](O)[C@H]([C@@H](C)CC)NC(=O)[C@@]2(C)CSC(=N2)[C@@]2(C)CSC(=N2)c2csc(n2)C[C@H](OC)[C@@H]1C [hoiamide A]
[3]
  elevation of neuronal [Na+]i / sodium influx: rapid and concentration-dependent elevation of neuronal [Na^+]i; also recorded: VGSC activator; also recorded: maximum sodium influx that was less than that of the full agonist, batrachotoxin
  maximum response, elevation of neuronal [Na+]i: less than 20 mM
  relative efficacy for elevation of neuronal [Na+]i: 0.38
  type of agonism at neurotoxin site 2 on VGSCs: partial agonist at neurotoxin site 2; also recorded: partial agonism at the neurotoxin site 2 on VGSCs
[3]; read-out: EC50 for hoiamide-induced sodium influx
  EC50: 2310 nM
Cancer cells
  cytotoxicity to cancer cells: modest cytotoxicity
[4]
  IC50: 47.5 nM
[1]
  change of hoiamide A EC50 value by modulator: without altering the hoiamide A EC50 value; also recorded: no corresponding effect on the hoiamide A EC50 value
  maximum response of hoiamide A-induced sodium influx, AUC: 89.9 fluorescence x min and 141.4 fluorescence x min and 143.4 fluorescence x min
[2]
  inhibition of [3H]BTX specific binding: concentration-dependent inhibition of [^3H]BTX specific binding; also recorded: inhibit the specific binding of [^3H]BTX to VGSCs
[2]; read-out: IC50, inhibition of [3H]batrachotoxin binding
  IC50: 92.8 nM
[5]
  effect on batrachotoxin-induced sodium influx (SBFI AUC): concentration-dependent reduction in batrachotoxin-induced sodium influx; also recorded: reversal of batrachotoxin (30 nM)-induced elevation of neuronal [Na^+]i

## C=C(C=O)C[C@@H]1C[C@H](O)[C@]2(C)O[C@@H]3C[C@@H]4O[C@@H]5C[C@]6(C)O[C@]7(C)CC[C@@H]8O[C@@H]9C[C@]%10(C)O[C@@H]%11C(C)=CC(=O)O[C@H]%11C[C@H]%10O[C@H]9C[C@@H](C)[C@H]8O[C@H]7C[C@H]6O[C@H]5C/C=C\[C@H]4O[C@H]3C[C@H]2O1 [brevetoxin]
[6]
  effect on [3H]BTX specific binding (allosteric): dramatically increased

## CC1(C)[C@H](C(=O)O[C@H](C#N)c2cccc(Oc3ccccc3)c2)[C@@H]1C=C(Br)Br [deltamethrin]
[3]
  sodium influx when given alone: inactive alone
[1]
  effect on maximum response of hoiamide A-induced sodium influx: significantly increased the maximum response; also recorded: enhance hoiamide A-induced elevation of neuronal [Na^+]i
[6]
  effect on [3H]BTX specific binding (allosteric): dramatically increased

## C[C@]12N[C@H](Cc3ccccc31)c1ccccc12 [MK-801]
[1]
  effect on hoiamide A-induced elevation of neuronal [Na+]i: partial, but statistically significant, decrease

## brevetoxin 3 [PbTx-3]
[3]
  sodium influx when given alone: inactive alone
[1]
  effect on maximum response of hoiamide A-induced sodium influx: significant increase in the maximum response; also recorded: enhance hoiamide A-induced elevation of neuronal [Na^+]i

## batrachotoxin
[3]
  elevation of neuronal [Na+]i / sodium influx: rapid and concentration-dependent elevation of neuronal [Na^+]i
  maximum response, elevation of neuronal [Na+]i: greater than 60 mM
[3]; read-out: EC50 for batrachotoxin-induced elevation of neuronal [Na+]i
  EC50: 11.4 nM
[7]
  type of agonism at neurotoxin site 2: full agonist at neurotoxin site 2

## C=CC/C=C\C=C/[C@H]1O[C@H]2C[C@H]3O[C@H]4CC[C@H]5O[C@H]6C[C@@]7(C)O[C@@]8(C)[C@@H](O)C[C@H](CCCO)O[C@@H]8C[C@@H]7O[C@@H]6C[C@@H]5O[C@]4(C)C[C@]3(C)O[C@@H]2C=C[C@]1(C)O [gambierol]
[8]
  effect on PbTx-1 induced elevation of neuronal [Na+]i: inhibited the full agonist PbTx-1 induced elevation of neuronal [Na^+]i
  type of agonism at neurotoxin site 5: low efficacy partial agonist at neurotoxin site 5

## NS(=O)(=O)c1cccc2c1c([N+](=O)[O-])cc1nc(O)c(O)nc12 [NBQX]
[1]
  effect on hoiamide A-induced Na+ influx: no effect
